One may read the EC50 as the concentration needed to bring the measured effect to its halfway point.

Here are results for four molecules from publication PMC12951568, “Identifying Structural Factors Governing the Photodynamic Activity of Phthalocyanines” (Journal of Medicinal Chemistry, 2026).

The nature of data set [1]: Absorption and fluorescence emission spectra in DMF. The data set is classed as physicochemical. The following applies: in DMF. As to the method:
(§1) An absorption spectrum of 2.475 mL of solvent (water, DMF, or PBS) was taken (i.e., absorption spectrum of baseline); then, 25 μL of stock solution was added to reach the final concentration of 1 μM in the cuvette, and the absorption and emission spectra were taken. Baseline of the solvent was subtracted from the obtained absorption spectrum to get the final absorption spectrum of the sample.

Data set [2] in a line: Fluorescence quantum yield, comparative method. The data set is classed as physicochemical. The following applies: in DMF; ZnPc as reference. The method in brief:
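ΦF determined by the comparative method against ZnPc (ΦF 0.32 in THF), using integrated emission area, absorbance at the excitation wavelength and solvent refractive index. Q-band absorbance kept below 0.05; estimated error ± 15%.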

Data set [3] can be described thus: Quantum yield of singlet oxygen production, comparative method with DPBF scavenger. The data set is classed as physicochemical. The following applies: in DMF, ZnPc as reference. In a few lines:
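Dye added from 100 μM DMF stock (or DMF/water, water); irradiated under stirring with xenon lamp through water filter and OG530 cut-off (>523 nm). DPBF decay followed at 415 nm; ΦΔ from ln(A0/At) slopes versus reference, normalised to absorbed light summed over 523–850 nm; triplicate means, ±10% error.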

A short description of data set [4]: Log P, partition between n-octanol and PBS. The format is physicochemical. The following applies: partition coefficient between 1-octanol and PBS. In a few lines: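 Sample from 100 μM stock added to equal volumes of n-octanol and PBS, vortexed 5 min at rt, centrifuged. Each layer diluted into DMF and emission spectra recorded; log P taken as log of octanol/PBS integrated fluorescence ratio, mean of triplicates.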

The nature of data set [5]: Aggregation / monomerization in aqueous media (spectra in water and PBS). The data set is classed as physicochemical. The following applies: 1 μM. On the procedure: as §1
Data set [6] concerns MCF-7 (human breast adenocarcinoma). Kind of data set: Photodynamic activity (phototoxicity, neutral red uptake) on MCF-7. The format is cell-based. The following applies: 12 h incubation, Xe-lamp 15 min, λ > 570 nm, 11.2 J/cm^2; mean ± SD; t.w. = this work.
Data set [7] relates to HeLa (human cervical carcinoma). The following applies: 12 h incubation, Xe-lamp 15 min, λ > 570 nm, 11.2 J/cm^2; mean ± SD; determined previously under the same conditions at the same workplace and published; ref number not given; read-out: EC50 (nM) HeLa; cited from earlier work.
The test system of data set [8] is SK-MEL-28 (human skin melanoma). Further details: method as in number not printed in Table 2. The following applies: 12 h incubation, Xe-lamp 15 min, λ > 570 nm, 11.2 J/cm^2; mean ± SD; determined previously under the same conditions at the same workplace and published; ref number not given; cited from earlier work.
The nature of data set [9]: Fluorescence lifetime in DMF. The data set is classed as physicochemical. From the text: 1 Photophysical Data of Investigated Derivatives in DMF ^a | column: τF1/ns; τF2/ns
Data set [10] deals with MCF-7 (human breast adenocarcinoma). Set-up: method as in number not printed in Table 2. The following applies: 12 h incubation, Xe-lamp 15 min, λ > 570 nm, 11.2 J/cm^2; mean ± SD; determined previously under the same conditions at the same workplace and published; ref number not given; cited from earlier work.

Like-named read-outs stand apart in the source and are kept apart here.

On to `CC[N+](CC)(CC)CCSc1cc2c(cc1SCC[N+](CC)(CC)CC)C1=Nc3c4cc(SCC[N+](CC)(CC)CC)c(SCC[N+](CC)(CC)CC)cc4c4[n]3[Zn][n]3c(c5cc(SCC[N+](CC)(CC)CC)c(SCC[N+](CC)(CC)CC)cc5c3=NC3=NC(=N4)c4cc(SCC[N+](CC)(CC)CC)c(SCC[N+](CC)(CC)CC)cc43)=NC2=N1.[I-].[I-].[I-].[I-].[I-].[I-].[I-].[I-]` [C8Zn], for which, in [1], the “ε, extinction coefficient” value is recorded as 281 600 M^–1cm^–1; the “λA, absorption maximum in the Q-band” value was determined as 704 nm; the “λF, fluorescence emission maximum” value was 714 nm. In data set [2], the “ΦF, fluorescence quantum yield” value is given as 0.29. Besides, the “ΦΔ, quantum yield of singlet oxygen production” value (“ΦΔ, quantum yield” below) in data set [3] is given as 0.63. The “Log P” value in [4] is listed as “–1.59”. For the same molecule, the “aggregation / monomeric state” value in data set [5] was “did not sufficiently suppress aggregation”. The molecule further registered an EC50 in data set [6] of 280 ± 40 nM. In addition, in data set [7], the EC50 is 540 ± 90 nM. Besides, the EC50 in [8] is 320 ± 48 nM.

As for `CC[N+](CC)(CC)CCSc1ccc(SCC[N+](CC)(CC)CC)c2c1C1=NC2=Nc2c3c(SCC[N+](CC)(CC)CC)ccc(SCC[N+](CC)(CC)CC)c3c3[n]2[Zn][n]2c(c4c(SCC[N+](CC)(CC)CC)ccc(SCC[N+](CC)(CC)CC)c4c2=NC2=NC(=N3)c3c(SCC[N+](CC)(CC)CC)ccc(SCC[N+](CC)(CC)CC)c32)=N1.[I-].[I-].[I-].[I-].[I-].[I-].[I-].[I-]` [C9Zn], in [1], the “ε, extinction coefficient” value was 134 170 M^–1cm^–1; the “λA, absorption maximum in the Q-band” value is given as 757 nm; the “λF, fluorescence emission maximum” value came to 783 nm. For the same molecule, the “ΦF, fluorescence quantum yield” value in [2] came out at 0.06. Also, the “ΦΔ, quantum yield” value in data set [3] came out at 0.64. Also, in [4], the “Log P” value is given as “–1.65”. Besides, in [5], the “aggregation / monomeric state” value was “did not sufficiently suppress aggregation”. In [6], this molecule came in with an EC50 of 210 ± 10 nM. Moreover, the EC50 in data set [7] was 310 ± 121 nM. For the same molecule, the EC50 in [8] was 220 ± 21 nM.

As to `Cc1cc(Cn2cc[n+](C)c2)c(Oc2c3c(c(C)c(C)[n+]2C)C2=Nc4c5c(Oc6c(Cn7cc[n+](C)c7)cc(C)cc6Cn6cc[n+](C)c6)[n+](C)c(C)c(C)c5c5[n]4[Zn][n]4c(c6c(C)c(C)[n+](C)c(Oc7c(Cn8cc[n+](C)c8)cc(C)cc7Cn7cc[n+](C)c7)c6c4=NC4=NC(=N5)c5c4c(C)c(C)[n+](C)c5Oc4c(Cn5cc[n+](C)c5)cc(C)cc4Cn4cc[n+](C)c4)=NC3=N2)c(Cn2cc[n+](C)c2)c1.[I-].[I-].[I-].[I-].[I-].[I-].[I-].[I-].[I-].[I-].[I-].[I-]` [C11Zn], in [1], the “ε, extinction coefficient” value is on record as 160 750 M^–1cm^–1; the “λA, absorption maximum in the Q-band” value came out at 716 nm; the “λF, fluorescence emission maximum” value is 726 nm. The “ΦF, fluorescence quantum yield” value in [2] is given as 0.21. In [9], the “τF1, fluorescence lifetime (relative amplitude in brackets)” value came out at 1.41 ns. Moreover, in [3], the “ΦΔ, quantum yield” value is 0.53. In addition, in data set [4], the “Log P” value is given as “–2.25”. Moreover, in data set [5], the “aggregation / monomeric state” value is listed as “full monomerization”. For the same molecule, the EC50 in [7] was 3.8 ± 0.2 nM. Moreover, the EC50 in data set [10] was 2.8 ± 0.1 nM. Moreover, in data set [8], the EC50 was 3.8 ± 0.6 nM.

With `Cc1cc(OCc2cn(CCO[C@@H]3O[C@H](CO)[C@@H](O)[C@H](O)[C@H]3O)nn2)c(Oc2cc3c(cc2Oc2c(OCc4cn(CCO[C@@H]5O[C@H](CO)[C@@H](O)[C@H](O)[C@H]5O)nn4)cc(C)cc2OCc2cn(CCO[C@@H]4O[C@H](CO)[C@@H](O)[C@H](O)[C@H]4O)nn2)C2=Nc4c5ccccc5c5[n]4[Zn][n]4c(c6ccccc6c4=NC3=N2)=NC2=NC(=N5)c3ccccc32)c(OCc2cn(CCO[C@@H]3O[C@H](CO)[C@@H](O)[C@H](O)[C@H]3O)nn2)c1` [N4Zn], in [1], the “ε, extinction coefficient” value is listed as 293 750 M^–1cm^–1; the “λA, absorption maximum in the Q-band” value was found to be 672 nm; the “λF, fluorescence emission maximum” value came to 681 nm. For the same molecule, the “ΦF, fluorescence quantum yield” value in data set [2] was determined as 0.29. Moreover, the “ΦΔ, quantum yield” value in [3] turned out to be 0.59. Moreover, the “Log P” value in data set [4] is on record as “–0.65”. In addition, the EC50 in data set [7] is 2070 ± 60 nM. Moreover, in data set [10], the EC50 is 1200 ± 100 nM. For the same molecule, the EC50 in data set [8] is 500 ± 100 nM.
